From ChEMBL document CHEMBL5303573, “Mapping human microbiome drug metabolism by gut bacteria and their genes” (Nature, 2019)

Assays:
[1] = The drug is tested on Collinsella aerofaciens strain: ATCC25986 for biotransformation. The drug concentrations were measured before and after a 12-h incubation by liquid-chromatography-coupled mass spectrometry (LC–MS); conditions: 2 µM
[2] = The drug is tested on Collinsella intestinalis strain: DSM13280 for biotransformation. The drug concentrations were measured before and after a 12-h incubation by liquid-chromatography-coupled mass spectrometry (LC–MS); conditions: 2 µM
[3] = The drug is tested on Bacteroides finegoldii strain: DSM17565 for biotransformation. The drug concentrations were measured before and after a 12-h incubation by liquid-chromatography-coupled mass spectrometry (LC–MS); conditions: 2 µM
[4] = The drug is tested on Bacteroides pectinophilus strain: ATCC43243 for biotransformation. The drug concentrations were measured before and after a 12-h incubation by liquid-chromatography-coupled mass spectrometry (LC–MS); conditions: 2 µM
[5] = The drug is tested on Parabacteroides merdae strain: ATCC43184 for biotransformation. The drug concentrations were measured before and after a 12-h incubation by liquid-chromatography-coupled mass spectrometry (LC–MS); conditions: 2 µM
[6] = The drug is tested on Anaerotruncus colihominis strain: DSM17241 for biotransformation. The drug concentrations were measured before and after a 12-h incubation by liquid-chromatography-coupled mass spectrometry (LC–MS); conditions: 2 µM
[7] = The drug is tested on Blautia hansenii strain: DSM20583 for biotransformation. The drug concentrations were measured before and after a 12-h incubation by liquid-chromatography-coupled mass spectrometry (LC–MS); conditions: 2 µM
[8] = The drug is tested on Clostridium sporogenes strain: ATCC15579 for biotransformation. The drug concentrations were measured before and after a 12-h incubation by liquid-chromatography-coupled mass spectrometry (LC–MS); conditions: 2 µM
[9] = The drug is tested on Eubacterium rectale strain: ATCC33656 for biotransformation. The drug concentrations were measured before and after a 12-h incubation by liquid-chromatography-coupled mass spectrometry (LC–MS); conditions: agathobacter rectalis, 2 µM
[10] = The drug is tested on Edwardsiella tarda strain: ATCC23685 for biotransformation. The drug concentrations were measured before and after a 12-h incubation by liquid-chromatography-coupled mass spectrometry (LC–MS); conditions: 2 µM
[11] = The drug is tested on Escherichia coli strain: BW25113 for biotransformation. The drug concentrations were measured before and after a 12-h incubation by liquid-chromatography-coupled mass spectrometry (LC–MS); conditions: 2 µM
[12] = The drug is tested on Providencia stuartii strain: ATCC25827 for biotransformation. The drug concentrations were measured before and after a 12-h incubation by liquid-chromatography-coupled mass spectrometry (LC–MS); conditions: 2 µM
[13] = bacteroides eggerthii, 12 h, 2 µM
Description: The drug is tested on Bacteroides eggerthii strain: DSM20697 for biotransformation. The drug concentrations were measured before and after a 12-h incubation by liquid-chromatography-coupled mass spectrometry (LC–MS)

[14] = bacteroides fragilis, 12 h, 2 µM
Description: The drug is tested on Bacteroides fragilis strain: DS-208 for biotransformation. The drug concentrations were measured before and after a 12-h incubation by liquid-chromatography-coupled mass spectrometry (LC–MS)

[15] = parabacteroides johnsonii, 12 h, 2 µM
Description: The drug is tested on Parabacteroides johnsonii strain: DSM18315 for biotransformation. The drug concentrations were measured before and after a 12-h incubation by liquid-chromatography-coupled mass spectrometry (LC–MS)

[16] = enterocloster bolteae, 12 h, 2 µM
Description: The drug is tested on Clostridium bolteae strain: ATCCBAA-613 for biotransformation. The drug concentrations were measured before and after a 12-h incubation by liquid-chromatography-coupled mass spectrometry (LC–MS)

[17] = limosilactobacillus reuteri cf48-3a, 12 h, 2 µM
Description: The drug is tested on Lactobacillus reuteri CF48-3A strain: BEI HM-102 for biotransformation. The drug concentrations were measured before and after a 12-h incubation by liquid-chromatography-coupled mass spectrometry (LC–MS)

[18] = roseburia intestinalis, 12 h, 2 µM
Description: The drug is tested on Roseburia intestinalis strain: L1-82 for biotransformation. The drug concentrations were measured before and after a 12-h incubation by liquid-chromatography-coupled mass spectrometry (LC–MS)

[19] = The drug is tested on Clostridium symbiosum strain: ATCC14940 for biotransformation. The drug concentrations were measured before and after a 12-h incubation by liquid-chromatography-coupled mass spectrometry (LC–MS); conditions: 2 µM
[20] = victivallis vadensis, 12 h, 2 µM
Description: The drug is tested on Victivallis vadensis strain: ATCC BAA-548 for biotransformation. The drug concentrations were measured before and after a 12-h incubation by liquid-chromatography-coupled mass spectrometry (LC–MS)

Compound | Bacterial Biotransformation [1] | Bacterial Biotransformation [2] | Bacterial Biotransformation [3] | Bacterial Biotransformation [4] | Bacterial Biotransformation [5] | Bacterial Biotransformation [6] | Bacterial Biotransformation [7] | Bacterial Biotransformation [8] | Bacterial Biotransformation [9] | Bacterial Biotransformation [10] | Bacterial Biotransformation [11] | Bacterial Biotransformation [12] | Bacterial Biotransformation [13] | Bacterial Biotransformation [14] | Bacterial Biotransformation [15] | Bacterial Biotransformation [16] | Bacterial Biotransformation [17] | Bacterial Biotransformation [18] | Bacterial Biotransformation [19] | Bacterial Biotransformation [20]
CNCCC(Oc1ccc(C(F)(F)F)cc1)c1ccccc1 (configuration not stated) [FLUOXETINE] | Compound metabolized | Compound NOT metabolized | Compound NOT metabolized | Compound metabolized | Compound metabolized | Compound NOT metabolized | Compound metabolized | Compound metabolized | Compound metabolized | Compound NOT metabolized | Compound metabolized | Compound metabolized | Compound metabolized | Compound metabolized | Compound metabolized | Compound metabolized | Compound metabolized | Compound metabolized |  | 
CC[C@H](C)C(=O)O[C@H]1C[C@@H](C)C=C2C=C[C@H](C)[C@H](CC[C@@H]3C[C@@H](O)CC(=O)O3)[C@H]21 [LOVASTATIN] | Compound NOT metabolized | Compound NOT metabolized |  |  | Compound metabolized | Compound metabolized |  |  | Compound NOT metabolized | Compound NOT metabolized | Compound NOT metabolized |  | Compound NOT metabolized |  | Compound metabolized | Compound NOT metabolized | Compound NOT metabolized | Compound NOT metabolized | Compound NOT metabolized | Compound NOT metabolized
CCc1oc2ccccc2c1C(=O)c1cc(Br)c(O)c(Br)c1 [BENZBROMARONE] | Compound NOT metabolized |  | Compound NOT metabolized | Compound NOT metabolized | Compound NOT metabolized | Compound NOT metabolized | Compound NOT metabolized | Compound NOT metabolized | Compound NOT metabolized | Compound NOT metabolized | Compound NOT metabolized | Compound NOT metabolized | Compound NOT metabolized | Compound NOT metabolized | Compound NOT metabolized |  |  | Compound NOT metabolized | Compound NOT metabolized | 
CN1CCC(=C2c3ccccc3CCc3cccnc32)CC1.O=C(O)/C=C\C(=O)O.O=C(O)/C=C\C(=O)O [AZATADINE MALEATE] | Compound NOT metabolized | Compound NOT metabolized | Compound NOT metabolized | Compound NOT metabolized | Compound NOT metabolized | Compound NOT metabolized |  | Compound NOT metabolized | Compound NOT metabolized | Compound NOT metabolized | Compound NOT metabolized | Compound NOT metabolized | Compound NOT metabolized | Compound NOT metabolized | Compound NOT metabolized | Compound NOT metabolized | Compound NOT metabolized | Compound NOT metabolized | Compound NOT metabolized | Compound NOT metabolized
CCOC(=O)[C@H](CCc1ccccc1)N[C@H]1CCc2ccccc2N(CC(=O)O)C1=O [BENAZEPRIL] | Compound metabolized | Compound NOT metabolized | Compound metabolized | Compound NOT metabolized | Compound metabolized | Compound NOT metabolized | Compound NOT metabolized | Compound metabolized | Compound NOT metabolized | Compound NOT metabolized | Compound NOT metabolized | Compound NOT metabolized | Compound metabolized | Compound metabolized | Compound metabolized | Compound NOT metabolized | Compound NOT metabolized | Compound metabolized | Compound NOT metabolized | 
CC(=O)OCC(=O)NCCCOc1cccc(CN2CCCCC2)c1 [ROXATIDINE ACETATE] | Compound metabolized | Compound metabolized | Compound metabolized | Compound metabolized | Compound metabolized | Compound metabolized |  |  | Compound NOT metabolized | Compound metabolized | Compound metabolized | Compound metabolized | Compound metabolized | Compound metabolized | Compound metabolized | Compound metabolized | Compound NOT metabolized | Compound metabolized | Compound NOT metabolized | Compound metabolized
COc1ccc2c(c1OC)C(=O)O[C@@H]2[C@H]1c2c(cc3c(c2OC)OCO3)CCN1C [NOSCAPINE] | Compound metabolized | Compound metabolized | Compound metabolized | Compound metabolized | Compound metabolized | Compound metabolized |  | Compound NOT metabolized |  | Compound metabolized | Compound NOT metabolized | Compound metabolized | Compound NOT metabolized | Compound metabolized | Compound metabolized | Compound metabolized | Compound metabolized | Compound metabolized | Compound metabolized | Compound NOT metabolized
CCCc1nc(C(C)(C)O)c(C(=O)OCc2oc(=O)oc2C)n1Cc1ccc(-c2ccccc2-c2nnn[nH]2)cc1 [OLMESARTAN MEDOXOMIL] | Compound metabolized |  | Compound metabolized | Compound metabolized | Compound metabolized | Compound metabolized |  |  | Compound metabolized | Compound metabolized | Compound metabolized | Compound metabolized |  | Compound metabolized | Compound metabolized | Compound metabolized | Compound metabolized |  | Compound metabolized | Compound metabolized
NS(=O)(=O)c1cc2c(cc1Cl)N=C(CSCc1ccccc1)NS2(=O)=O [BENZTHIAZIDE] | Compound NOT metabolized | Compound NOT metabolized |  | Compound NOT metabolized | Compound NOT metabolized | Compound NOT metabolized | Compound metabolized | Compound NOT metabolized |  | Compound NOT metabolized |  |  | Compound NOT metabolized | Compound NOT metabolized |  | Compound NOT metabolized | Compound NOT metabolized | Compound NOT metabolized | Compound NOT metabolized | Compound NOT metabolized
